According to the NIST ThermoML archive (doi:10.1016/j.jct.2013.08.013):

What was measured:
[1] = xn = mol fraction of the nth substance listed; details: 101 kPa, Liquid; for speed of sound: Frequency=2 MHz, Linear variable-path acoustic interferometer; for mass density: Vibrating tube method
[2] = 101 kPa, Liquid; for speed of sound: Frequency=2 MHz, Linear variable-path acoustic interferometer; for mass density: Vibrating tube method

Cc1ccccc1Cl [2-chlorotoluene] + CCCCO
[1]
Details | mass density, 298.15 K [kg/m3] | mass density, 303.15 K [kg/m3] | mass density, 308.15 K [kg/m3] | speed of sound, 298.15 K [m/s] | speed of sound, 303.15 K [m/s] | speed of sound, 308.15 K [m/s]
x1 = 0.0914 | 837.37 | 833.28 | 829.2 | 1247.4 | 1231.4 | 1213.3
x1 = 0.2026 | 873.25 | 868.95 | 864.69 | 1255.5 | 1238.2 | 1219.2
x1 = 0.2888 | 899.51 | 895.11 | 890.72 | 1260.1 | 1241.1 | 1222.2
x1 = 0.3958 | 930.38 | 925.85 | 921.35 | 1264.2 | 1244.1 | 1224.3
x1 = 0.4973 | 958.03 | 953.44 | 948.87 | 1267.1 | 1246 | 1226
x1 = 0.6021 | 985.11 | 980.47 | 975.89 | 1269 | 1249.2 | 1227.4
x1 = 0.6969 | 1008.43 | 1003.83 | 999.22 | 1271.4 | 1250.4 | 1231
x1 = 0.7892 | 1030.29 | 1025.68 | 1021.07 | 1276.7 | 1255.4 | 1236.4
x1 = 0.894 | 1054.17 | 1049.55 | 1044.94 | 1285.6 | 1266.4 | 1247
x1 = 1 | 1077.38 | 1072.8 | 1068.21 | 1299.8 | 1283.6 | 1265.6

CCCCCO [pentan-1-ol]
[2]
Details | mass density [kg/m3] | speed of sound [m/s]
298.15 K | 810.82 | 1276.2
303.15 K | 807.1 | 1259.5
308.15 K | 803.38 | 1248.1

CCCCCCCO [heptan-1-ol] + Cc1ccccc1Cl
[1], x2 = 0
Details | mass density [kg/m3] | speed of sound [m/s]
298.15 K | 818.79 | 1326.5
303.15 K | 815.21 | 1313.6
308.15 K | 811.62 | 1293.1

Cc1ccccc1Cl [2-chlorotoluene]
[2]
Details | mass density [kg/m3] | speed of sound [m/s]
298.15 K | 1077.38 | 1299.8
303.15 K | 1072.8 | 1283.6
308.15 K | 1068.21 | 1265.6

CCCO [propan-1-ol] + Cc1ccccc1Cl
[1], x2 = 0
Details | mass density [kg/m3] | speed of sound [m/s]
298.15 K | 799.65 | 1206.5
303.15 K | 795.65 | 1188.6
308.15 K | 791.65 | 1171.8
